# Measurements taken from ChEMBL document CHEMBL1201862, “PubChem BioAssay data set” (2004).
#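 48-hour exposure; five concentrations; linearly interpolated endpoints. At the GI50, growth is halved.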 Calls of active or inactive are those of the source. Rule as the data show it: active = GI50 up to about 1.1 µM and inactive = higher.
# Legend:
# Assay in all cases: NCI tumour cell line growth inhibition, 48 h
# CAKI-1 = tested on: CAKI-1
# DLD-1 = tested on: DLD-1
# DMS-114 = tested on: DMS-114
# DMS-273 = tested on: DMS-273
# HL-60 = tested on: HL-60
# HOP-18 = tested on: HOP-18
# K562 = tested on: K562
# LOX IMVI = tested on: LOX IMVI
# M19-MEL = tested on: M19-MEL
# NCI-H23 = tested on: NCI-H23
# NCI-H460 = tested on: NCI-H460
# SF-539 = tested on: SF-539
# SK-MEL-5 = tested on: SK-MEL-5
# SNB-78 = tested on: SNB-78
# XF498 = tested on: XF498
# ACHN = tested on: ACHN
# TK-10 = tested on: TK-10
Compound,GI50 (CAKI-1),GI50 (DLD-1),GI50 (DMS-114),GI50 (DMS-273),GI50 (HL-60),GI50 (HOP-18),GI50 (K562),GI50 (LOX IMVI),GI50 (M19-MEL),GI50 (NCI-H23),GI50 (NCI-H460),GI50 (SF-539),GI50 (SK-MEL-5),GI50 (SNB-78),GI50 (XF498),GI50 (ACHN),GI50 (TK-10)
CC(=O)OCC1OC(n2cc(F)c(=O)[nH]c2=O)C(NC(=O)OCc2ccccc2)C(OC(C)=O)C1OC(C)=O (centres undefined),> 100 µM (inactive),> 100 µM (inactive),> 100 µM (inactive),> 100 µM (inactive),> 100 µM (inactive),> 100 µM (inactive),> 100 µM (inactive),> 100 µM (inactive),> 100 µM (inactive),> 100 µM (inactive),> 100 µM (inactive),> 100 µM (inactive),> 100 µM (inactive),> 100 µM (inactive),> 100 µM (inactive),,
CCOC(=O)c1ccc(N[C@@H]2c3cc4c(cc3C(c3cc(OC)c(O)c(OC)c3)[C@H]3C(=O)OCC32)OCO4)cc1O (some centres undefined),0.331 µM (active),1.44 µM (inactive),0.56 µM (active),0.299 µM (active),0.133 µM (active),2.25 µM (inactive),0.78 µM (active),0.185 µM (active),0.893 µM (active),0.9 µM (active),< 0.01 µM (active),0.685 µM (active),1.19 µM (inactive),1.77 µM (inactive),1.3 µM (inactive),,
CCCCCC1CC(C(C)=O)CN1c1ccc(F)cc1 (centres undefined),,32 µM (inactive),20.3 µM (inactive),35.6 µM (inactive),> 10 µM (inactive),13.1 µM (inactive),,28 µM (inactive),39.7 µM (inactive),24.8 µM (inactive),44.4 µM (inactive),> 100 µM (inactive),19.8 µM (inactive),36.4 µM (inactive),21.1 µM (inactive),26.9 µM (inactive),98.6 µM (inactive)
[N-]=[N+]=CC(=O)c1ccccc1C#CCCc1ccccc1,,39.4 µM (inactive),5.83 µM (inactive),23.2 µM (inactive),8.05 µM (inactive),40.3 µM (inactive),27.5 µM (inactive),30.1 µM (inactive),,21.5 µM (inactive),23.2 µM (inactive),36.6 µM (inactive),15.7 µM (inactive),,12.1 µM (inactive),22.6 µM (inactive),72.8 µM (inactive)
CC1(C)CCc2cc3c(cc2O1)OC(C)(C)CC3=O,52.5 µM (inactive),97.5 µM (inactive),40.9 µM (inactive),71.3 µM (inactive),23.4 µM (inactive),,44.6 µM (inactive),> 100 µM (inactive),88.7 µM (inactive),91.6 µM (inactive),> 100 µM (inactive),> 100 µM (inactive),21.1 µM (inactive),,50.8 µM (inactive),88.9 µM (inactive),
COC1=CC(=O)c2ccccc2C1(C)C1=NC(C)(C)CO1 (centres undefined),> 100 µM (inactive),> 100 µM (inactive),> 100 µM (inactive),> 100 µM (inactive),> 100 µM (inactive),> 100 µM (inactive),> 100 µM (inactive),,> 100 µM (inactive),> 100 µM (inactive),> 100 µM (inactive),> 100 µM (inactive),> 100 µM (inactive),,> 100 µM (inactive),> 100 µM (inactive),> 100 µM (inactive)
CCCCCCCCCCC(C)CCCCCCC(=O)O (centres undefined),> 100 µM (inactive),> 100 µM (inactive),> 100 µM (inactive),> 100 µM (inactive),> 100 µM (inactive),> 100 µM (inactive),> 100 µM (inactive),> 100 µM (inactive),> 100 µM (inactive),> 100 µM (inactive),> 100 µM (inactive),> 100 µM (inactive),> 100 µM (inactive),> 100 µM (inactive),,> 100 µM (inactive),> 100 µM (inactive)
